# Source: patent US20250339433A1, “PHARMACEUTICAL COMPOSITION FOR PREVENTION, ALLEVIATION, OR TREATMENT OF CANCER” (JBKLAB CO.,LTD., priority 2021, published 2025)
# Legend:
# SK-MEL-2 = assay: Cell viability assay (WST-8), cytotoxicity on cancer cell lines; assay type: cell-based, human; conditions: SK-MEL-2, 24 and 48 hours, dose dependently
# Protocol: (§1) The cytotoxicity of the compound of Example 1 against various cancer cell lines was evaluated. Etoposide, sold as an anticancer agent, was used as a control group drug. Specifically, the cell viability assay was performed as follows. A549, SK-OV-3, SK-MEL-2, and HCT15 cell lines were seeded in 96 well plates at the density of 5×10^3 cells per well and cultured for 24 hours. Then, the plates were treated with the compound of Example 1 or etoposide at different concentrations, followed by culture for 24 and 48 hours. At the end of the culture, 100 μl of WST-8 solution was added to each well of the plate, and the absorbance was measured with a microplate reader using a 450 nm optical filter to measure the formazan produced by the reducing factors in living cells. • A549: human non-small cell lung cancer cells • SK-OV-3: human ovarian cancer cells • SK-MEL-2: human melanoma cells • HCT15: human colorectal cancer adenocarcinoma cells
# SK-OV-3 = assay: as above; assay type: cell-based, human; conditions: SK-OV-3, 24 and 48 hours, dose dependently
# Protocol: as §1
# HCT15 = assay: as above; assay type: cell-based, human; conditions: HCT15, 24 and 48 hours, dose dependently
# Protocol: as §1
# A549 = assay: as above; assay type: cell-based, human
# Protocol: as §1
# SK Hep1 = assay: Combination with sorafenib, cell viability / caspase-3 activity; assay type: cell-based, human
# Protocol: (§2) Human liver cancer cell lines (SK Hep1 and Huh-7) were treated with control (no treatment), 5 μM of the compound of Example 1, 0.1 μM of sorafenib, and 5 μM of the compound of Example 1/0.1 μM of sorafenib, and the cell viability of SK Hep1 and Huh-7 was confirmed.
# Huh-7 = assay: as above; assay type: cell-based, human
# Protocol: as §2
# MDA-MB-231 [1] = assay: Number of mitotic figures / apoptotic bodies in xenograft tumor tissue (H&E); assay type: in vivo, BALB/c-nude mice; conditions: for Mitotic index: sum of five areas at x400
# Protocol: An experiment was performed to evaluate the tumor necrosis effect of the compound of Example 1 by measuring the number of apoptotic bodies in tumors and H&E staining of tumor tissues in BALB/c-nude mice injected with cancer cell lines. […] After calculating the sum of the measurements and expressing them as individual values, statistical comparative analysis was performed using GraphPad Prism 5. As a result of observing the apoptotic body, it was observed that the cells were shrunk and divided (blebs) and that empty space (hollow) surrounded the periphery. […] Since the frequency of mitotic figures in tumor tissue is related to the dividing ability of tumor cells, it can reflect the degree of malignancy of the tumor.
# SKOV-3 = assay: Combination with cisplatin, cell viability; assay type: cell-based, human
# Protocol: (§3) Human ovarian cancer cell lines (SKOV-3 and OVCAR-3) were treated with control (no treatment), 0.1 μM of the compound of Example 1, 10 μM of cisplatin, […], and the cell viability of SKOV-3 and OVCAR-3 was confirmed.
# OVCAR-3 = assay: Combination with cisplatin, cell viability; assay type: cell-based, human
# Protocol: as §3
# MDA-MB-231 [2] = assay: Breast cancer growth inhibition in xenograft nude mice; assay type: in vivo; conditions: 25 mpk intravenously
# Protocol: An experiment was performed to confirm the tumor inhibition of the compound of Example 1, the active ingredient of the pharmaceutical composition of the present invention, on a xenograft tumor sample of breast cancer cells (MBA-MB-231), a human-derived TNBC cell line.
# Specifically, to confirm the effect of the compound of Example 1, which is the active ingredient of the pharmaceutical composition provided by the present invention, on the inhibition of breast cancer cell growth, an experiment was performed using 80 female 5-week-old xenograft Balb/c nude mice. The experimental xenograft Balb/c nude mice lacks T cells, the immune cells, were selected as an animal model suitable for transplanting human cancer cells. At the time of administration, animals within ±20% of the total average body weight were selected, and tumor growth was checked twice a week on the surface, and the size of the tumor was measured with a vernier caliper for 3 weeks. In addition, the compound of Example 1 was administered intravenously at a concentration of 25 mpk, and 30% PEG was used as a solvent.
# BT20 = assay: Breast cancer cell viability assay (WST-8); assay type: cell-based, human; conditions: dose dependently
# Protocol: (§4) An experiment was performed to confirm the growth inhibitory effect of the compounds of Examples 1 and 2, the active ingredients of the pharmaceutical composition of the present invention, on breast cancer cell lines through cell viability assay.
# (§5) Specifically, the cell viability assay was performed as follows. BT20, a human-derived breast cancer cell line, and MDA-MB-231, a TNBC cell line, were each seeded in 96-well plates at the density of 5×10^3 cells/well and cultured for 24 hours. […] At the end of the culture, 100 μl of WST-8 solution was added to each well of the plate, and the absorbance was measured with a microplate reader using a 450 nm optical filter to measure the formazan produced by the reducing factors in living cells.
# MDA-MB-231 [3] = assay: Breast cancer cell viability assay (WST-8); assay type: cell-based, human; conditions: dose dependently
# Protocol: as §4, §5
# MDA-MB-453 = assay: Breast cancer cell viability assay (WST-8); assay type: cell-based; conditions: MDA-MB-453, 24 hours, dose dependently
# Protocol: Specifically, the cell viability assay was performed as follows. BT20, a human-derived breast cancer cell line, and MDA-MB-231, a TNBC cell line, were each seeded in 96-well plates at the density of 5×10^3 cells/well and cultured for 24 hours. Then, I-bet 762 and the compounds were treated thereto at different concentrations and cultured for 48 hours. At the end of the culture, 100 μl of WST-8 solution was added to each well of the plate, and the absorbance was measured with a microplate reader using a 450 nm optical filter to measure the formazan produced by the reducing factors in living cells.
# FIGS. 10A and 10B show the cell viability of MDA-MB-231, MDA-MB-453, and BT-20 after 24 hours of treatment with the compound of Example 3.
structure (smiles),measurement,setting,value
"c1nc(Nc2ccc(N3CCCC3)cc2)c2cc[nH]c2n1 [Example 1, N-(4-(pyrrolidin-1-yl)phenyl)-7H-pyrrolo[2,3-d]pyrimidin-4-amine]",toxicity to cancer cell line (cell viability),SK-MEL-2,excellent toxicity
same,toxicity to cancer cell line (cell viability),SK-OV-3,excellent toxicity
same,toxicity to cancer cell line (cell viability),HCT15,excellent toxicity
same,toxicity to cancer cell line (cell viability),"A549; A549, 24 and 48 hours, dose dependently",excellent toxicity
same,toxicity compared with etoposide,"A549; various cancer cell lines (A549, SK-OV-3, SK-MEL-2, HCT15)",equally or more effective than etoposide
same,cell viability,"SK Hep1; SK Hep1, 5 μM Example 1 in combination with 0.1 μM sorafenib",further inhibited (synergistic effect)
same,cell viability,"SK Hep1; SK Hep1, 5 μM alone",suppressed
same,cell viability,"Huh-7; Huh-7, 5 μM Example 1 in combination with 0.1 μM sorafenib",further inhibited (synergistic effect)
same,cell viability,"Huh-7; Huh-7, 5 μM alone",suppressed
same,number of apoptotic bodies,"MDA-MB-231 [1]; T1 and T2 groups compared to NC, dose dependently",higher
same,Mitotic index,MDA-MB-231 [1]; T1 group (2 times/week),25.5 ± 10.2
same,Mitotic index,MDA-MB-231 [1]; T2 group (3 times/week),20.8 ± 7.4
same,cell viability,"SKOV-3; SKOV-3, 0.1 μM Example 1 in combination with 10 μM cisplatin",further inhibited (synergistic effect)
same,cell viability,"SKOV-3; SKOV-3, 0.1 μM alone",suppressed
same,cell viability,"OVCAR-3; OVCAR-3, 0.1 μM Example 1 in combination with 10 μM cisplatin",further inhibited (synergistic effect)
same,cell viability,"OVCAR-3; OVCAR-3, 0.1 μM alone",suppressed
same,biological toxicity (change in body weight),MDA-MB-231 [2]; 3 weeks,no biological toxicity
same,cachexia phenomenon,MDA-MB-231 [2]; 3 weeks,not observed
same,tumor growth (change in tumor size/volume),MDA-MB-231 [2]; vs CTL,significantly suppressed
same,tumor growth (change in tumor weight),MDA-MB-231 [2]; vs CTL,significantly suppressed
"CN1CCN(c2ccc(C(=O)Nc3n[nH]c4ncc(Br)cc34)cc2)CC1 [Example 2, N-(5-bromo-1H-pyrazolo[3,4-b]pyridin-3-yl)-4-(4-methylpiperazin-1-yl)benzamide]",cell viability,"BT20; BT20, 24 and 48 hours",inhibited the cell viability
same,cell viability,"MDA-MB-231 [3]; MDA-MB-231, 24 and 48 hours",inhibited the cell viability
"O=C(Nc1n[nH]c2ncc(-c3cnn(C4CCNCC4)c3)cc12)c1ccc(F)cc1 [Example 3, 4-fluoro-N-(5-(1-(piperidin-4-yl)-1H-pyrazol-4-yl)-1H-pyrazolo[3,4-b]pyridin-3-yl)benzamide]",cell viability,MDA-MB-453,suppressed
same,cell viability,"BT20; BT-20, 24 hours",suppressed
same,cell viability,"MDA-MB-231 [3]; MDA-MB-231, 24 hours",suppressed
"N.N.[Cl][Pt][Cl] [cisplatin, reference compound]",cell viability,"SKOV-3; SKOV-3, 1 μM of cisplatin alone",suppressed
same,cell viability,"OVCAR-3; OVCAR-3, 1 μM of cisplatin alone",suppressed
"CNC(=O)c1cc(Oc2ccc(NC(=O)Nc3ccc(Cl)c(C(F)(F)F)c3)cc2)ccn1 [sorafenib, reference compound]",cell viability,"SK Hep1; SK Hep1, 0.1 μM sorafenib alone",suppressed
same,cell viability,"Huh-7; Huh-7, 0.1 μM sorafenib alone",suppressed
